Paper PMC12279193 (Advanced Science, 2025)

Tests used:
[1] = biological target: SARS-CoV S-trimer protein (Severe acute respiratory syndrome-related coronavirus, UniProt P59594); assay: biochemical; type: binding
[2] = biological target: MERS-CoV S-trimer protein (Betacoronavirus England 1, UniProt K9N5Q8); assay: biochemical; type: binding
Chain of MERS-CoV S-trimer protein (K9N5Q8 18-1294 limits assumed): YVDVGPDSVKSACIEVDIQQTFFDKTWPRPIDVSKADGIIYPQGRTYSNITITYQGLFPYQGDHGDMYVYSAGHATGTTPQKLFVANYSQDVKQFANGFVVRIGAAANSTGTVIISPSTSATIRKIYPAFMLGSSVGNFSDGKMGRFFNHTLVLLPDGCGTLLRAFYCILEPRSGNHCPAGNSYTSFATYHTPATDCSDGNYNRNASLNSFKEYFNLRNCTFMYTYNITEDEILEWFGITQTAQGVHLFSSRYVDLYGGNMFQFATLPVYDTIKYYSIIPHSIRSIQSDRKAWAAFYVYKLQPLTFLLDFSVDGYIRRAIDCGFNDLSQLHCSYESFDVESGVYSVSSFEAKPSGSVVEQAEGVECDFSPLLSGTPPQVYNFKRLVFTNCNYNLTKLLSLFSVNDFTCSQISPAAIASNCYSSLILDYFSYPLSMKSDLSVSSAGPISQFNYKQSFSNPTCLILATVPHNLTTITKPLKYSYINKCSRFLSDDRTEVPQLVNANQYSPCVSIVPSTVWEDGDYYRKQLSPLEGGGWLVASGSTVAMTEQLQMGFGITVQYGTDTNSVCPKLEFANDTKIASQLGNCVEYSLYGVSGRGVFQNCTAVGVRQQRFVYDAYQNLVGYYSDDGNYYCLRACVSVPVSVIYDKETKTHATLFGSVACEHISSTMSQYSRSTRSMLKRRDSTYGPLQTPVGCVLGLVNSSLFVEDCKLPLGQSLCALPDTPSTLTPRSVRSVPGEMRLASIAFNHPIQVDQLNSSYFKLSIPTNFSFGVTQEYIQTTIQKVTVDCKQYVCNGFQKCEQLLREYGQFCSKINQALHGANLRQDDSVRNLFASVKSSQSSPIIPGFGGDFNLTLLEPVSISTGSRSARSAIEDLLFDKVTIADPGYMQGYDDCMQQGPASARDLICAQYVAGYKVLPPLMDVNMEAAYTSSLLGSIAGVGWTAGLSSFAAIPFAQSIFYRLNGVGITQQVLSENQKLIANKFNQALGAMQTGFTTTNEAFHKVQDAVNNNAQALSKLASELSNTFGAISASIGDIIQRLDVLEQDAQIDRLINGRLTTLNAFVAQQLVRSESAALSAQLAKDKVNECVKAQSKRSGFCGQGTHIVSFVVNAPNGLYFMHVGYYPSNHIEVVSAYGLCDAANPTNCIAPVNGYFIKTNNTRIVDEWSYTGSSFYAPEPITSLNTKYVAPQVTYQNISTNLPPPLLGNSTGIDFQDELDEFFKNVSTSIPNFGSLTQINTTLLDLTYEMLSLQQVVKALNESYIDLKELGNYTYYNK

CN(/N=C/c1ccccc1C(=O)O)c1nc(-c2ccccc2Cl)cs1 [S416] showed a Kd [1] of 27.2 µM and a Kd [2] of 55.4 µM.
